The source of these data is patent publication US20080260807A1, “Water-Soluble Films Comprising Nicotine” (Bio Progress Technology Limited, priority 2005, published 2008).

The conditions of data set [1]: in water or alcohol; cited from earlier work.
For data set [2] the following is noted: aqueous solution of hydroxyl ethyl cellulose, Pullulan, polyvinyl pyrollidone and propylene glycol alginate, cast to thin film. From the text: Alternatively, films of the present invention can be made by dissolving NBD in an aqueous solution of hydroxyl ethyl cellulose, Pullulan, polyvinyl pyrollidone (“PVP”), and propylene glycol alginate (“POGA”). This solution can then be cast to form thin films of the present invention. […] Films made according to the process, in addition to comprising embodiments of the present invention, can be used as the base water-soluble film to which the fluid comprising nicotine is applied. Further, or in the alternative, the aqueous solution thus described can comprise the fluid comprising nicotine for application to the base water-soluble film.

As for `CN1CCCC1c1cccnc1` (centres unmarked) [Nicotine], in data set [1], the Solubility entry is “Soluble in water”.
Turning to `CN1CCCC1c1cccnc1.O.O.O=C(O)C(O)C(O)C(=O)O` (centres unmarked) [Nicotine Bitartrate Dihydrate, nicotine bitartrate dihydrate], in data set [2], the “Crystallisation during formation of the film” value is “does not crystallize”.
